From patent publication US20090280511A1, “Methods for selecting candidate peptides presented on the surface of cancer cells following their binding to MHC class I molecules” (priority 2008, published 2009)
Residues, ends and D or L forms follow the SMILES beside them. *: point of attachment. Cbz = O=C(OCc1ccccc1)*

Columns and labels:
Type in all cases: cell-based, mouse
[1] = system: DC2.4 cells; test: H-2Kb/pOV8 presentation after introducing proteins from outside into the cytosol with Chariot
Text: The presentation of H-2Kb/pOV8 was examined when pOV8-YFP and YFP-pOV8 were introduced directly from the outside into the cytosol of DC2.4 cells.
Chariot was used as a reagent for forcibly making the cell membrane permeable to proteins in solution. It was again examined whether the presentation of pOV8 to H-2Kb was improved by fusion of pOV8 to the N-terminus of YFP as compared to fusion to the C-terminus. The cells were heated in the presence of any of YFP, pOV8-YFP, and YFP-pOV8, and the cell membrane permeabilizing agent Chariot. After washing the cells, a whole cell extract was prepared. After SDS-PAGE, Western blotting was performed using anti-YFP antibody (inset of FIG. 5). In addition, the expression of H-2Kb/pOV8 in these cells was measured using the 25D1.16 antibody.

[2] = system: DC2.4 cells; test: Effect of inhibitors on H-2Kb/pOV8 expression after acid wash
Procedure: The DC2.4 cells were washed with acid 12 hours after transfection as in FIG. 3. The inhibitors were added at 0 hours (time 0). After 6 hours, the cells were recovered and examined.
The effect of various inhibitors on H-2Kb/pOV8 expression was examined. […] DC2.4 cells were transfected with DNA and after two hours, excess DNA was removed and the cells were further incubated for 12 hours. The cells were washed with acid and the indicated inhibitor was added at the same time. After six hours, H-2Kb/pOV8 expression was measured using 25D1.16 antibody.
Other inhibitors were examined as in the experiment described in [8] above.
The same system in [8] above was used to examine the effect of non-natural amino acids such as canavanine or azetidine. It is known that proteins incorporating non-natural amino acids are easily degraded since they fail to fold properly.

[3] = system: DC2.4 cells; test: H-2Kb/pOV8 expression with or without IFNγ treatment, 25D1.16 antibody; conditions: DC2.4 cells expressing pOV8-YFP or YFP-pOV8
Text: First, DC2.4 cells expressing pOV8-YFP and YFP-pOV8 were respectively treated with IFNγ and analyzed for H-2Kb/pOV8 expression using the 25D1.16 antibody.
Cellular IFNγ treatment causes an increase in class I antigen expression, and the enormous immunological significance of this phenomenon has been elucidated. The principle of N-terminal epitope dominance should play a significant role in direct antigen presentation in the living body, since it brings about an expression difference similar to that which results from the presence or absence of IFNγ treatment.
In the table, the term “whole” means the sum of H-2Kb/pOV8 expression for all cells expressing YFP. The term “at 10^2 fluorescent units” means H-2Kb/pOV8 expression for cells expressing 10^2 fluorescent units of YFP.

| Compound | effect of inhibitor on H-2Kb/pOV8 expression (presentation) [2] | other results |
| --- | --- | --- |
| CC(C)C[C@@H](C=O)NC(=O)[C@H](CC(C)C)NC(=O)[C@H](CC(C)C)NC(=O)OCc1ccccc1 [MG132] (Cbz-Leu-Leu-Leu-aldehyde) | – | effect on antigen presentation of OVA administered with Chariot ([1]; OVA plus Chariot): reduced antigen presentation |
| COc1ccc(C[C@H]2NC[C@H](O)[C@H]2OC(C)=O)cc1 [anisomycin] | inhibited | – |
| C1CNC1 [azetidine] | no effect on antigen presentation | – |
| N=C(N)NOCC[C@H](N)C(=O)O [canavanine] | no variation | – |
| CCN(CC)CCCC(C)Nc1ccnc2cc(Cl)ccc12 (centres unmarked) [chloroquine] | not inhibited | – |
| IFNγ: cytokine used to treat cells; known to increase MHC class I antigen expression | – | effect of IFNγ treatment on H-2Kb/pOV8 expression [3]: increased |
| OVA: full-length OVA antigen protein containing the pOV8 epitope | – | presentation of H-2Kb/pOV8 ([1]; protein administered to cells in the presence of Chariot): slight presentation of H-2Kb/pOV8 was observed |
| a-amanitin | Recovery in H-2Kb/pOV8 expression was not observed | – |
